The values that follow come from BindingDB's records for doi:10.1124/jpet.301.1.322 (Sanofi Synthelabo, 2002).

Assay [1] concerns the target T1, Corticotropin-releasing factor receptor 1 (Mus musculus, UniProt P35347).
T1 sequence (P35347 whole entry): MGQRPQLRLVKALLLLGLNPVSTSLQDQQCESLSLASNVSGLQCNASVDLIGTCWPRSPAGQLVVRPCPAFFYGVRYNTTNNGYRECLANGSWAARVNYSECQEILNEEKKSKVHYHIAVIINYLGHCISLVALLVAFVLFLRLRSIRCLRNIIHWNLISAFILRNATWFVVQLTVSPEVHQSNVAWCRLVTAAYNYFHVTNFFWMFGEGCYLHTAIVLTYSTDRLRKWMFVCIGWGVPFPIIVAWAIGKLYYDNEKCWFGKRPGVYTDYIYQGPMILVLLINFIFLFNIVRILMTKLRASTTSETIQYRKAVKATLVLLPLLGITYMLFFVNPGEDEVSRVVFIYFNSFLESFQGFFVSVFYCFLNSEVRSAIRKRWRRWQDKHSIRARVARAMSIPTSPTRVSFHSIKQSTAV

In assay [2] the target is T2, Corticotropin-releasing factor receptor 1 (Homo sapiens, UniProt P34998).
T2 sequence (P34998 whole entry): T1 sequence (P35347 whole entry) with Q3G, R4H, T23A, Q29H, V39I, I118V, V176M, A186G, V232I, R379H

Assay [3] deals with T3, Corticotropin-releasing factor receptor 1 (Rattus norvegicus, UniProt P35353).
T3 sequence (P35353 whole entry): T1 sequence (P35347 whole entry) with Q3R, Q29R, S32N, A36T, I118V, Y252H

Where a chain is given by its changes, count along the chain named. Several values for one entry are separate records, joined by “and”; a condition that tells them apart may be missing. Equal values may be shown once.

Take `Cc1ccccc1C(=O)Nc1ccc(C(=O)N2CCCC(O)c3cc(Cl)ccc32)c(C)c1` (stereo not drawn): the inhibition constant (Ki) in assay [1] is 1.26 nM; in assay [2], 0.83 nM; in assay [3] it was 1.7 nM and 1 nM.
